Results as given in patent publication US20120027862A1, “Azelaic acid-comprising formulation with added pigment” (INTENDIS GMBH, priority 2010, published 2012).
Where “and” joins values, the source holds several entries; their conditions need not be identical. Identical values can stand only once.

Legend:
Type in all cases: cell-based, human
[1] = system: MCP-1; experiment: MCP-1/CCL2 in supernatants of UVB-irradiated HaCaT cells; details: UVB 100 mJ irradiated, azelaic acid 20 mM, pigment 3%
Protocol: (§1) HaCaT cells originate from a spontaneously immortalized permanent human keratinocyte cell line established by long-term cultivation of adult human keratinocytes under reduced calcium concentration and elevated temperature (Boukamp et al. J Cell Biol 106:761-771, 1988). HaCaT cells were propagated in culture medium. This consists of 88 ml DMEM/Ham's F12 w/o glutamine, 10 ml foetal calf serum, 1 ml penicillin/streptomycin solution with 10,000 units/ml and 1 ml of glutamine. […] HaCaT cells were sown in 6-well or 12-well plates at a cell number of 3×10^5 and 1.5×10^5 cells/well, respectively. The cells were cultivated to about 80% confluence in culture medium. 2 h prior to the intended UV irradiation, the cells were incubated with the above-mentioned substances. Immediately before the irradiation, the cells were washed 2× with PBS and irradiated therein. Irradiation was with UVB (spectrum: 280-360 nM, max. 320 nM) in a Waldmann-UVB source UV7002 at 100 mJ. After the UV irradiation, the cells were irradiated in culture medium in the presence and absence of the abovementioned substances. The cultures were stopped 24 h or 48 h after the UVB irradiation, and the supernatant was removed and centrifuged to remove debris and titanium dioxide-coated potassium aluminium silicate. All cultures were set up in triplicate. The supernatants were frozen at -80° C. until further use. The protein concentration was determined using a commercial kit from Meso Scale Discovery, Gaithersburg, Md., USA. The test was carried out in accordance with the instructions of the manufacturer (www.mesoscale.com). […] The samples were then washed once more, 150 μl of read buffer were pipetted into the mixture and the electrochemiluminescence was measured in an MSD Sector plate reader. […] The following cell cultures were prepared: • unirradiated HaCaTs • irradiated HaCaTs (100 mJ) • irradiated HaCaTs (100 mJ) in the presence of azelaic acid, • irradiated HaCaTs (100 mJ) in the presence of azelaic acid and titanium dioxide-coated potassium aluminium silicate The following reagents were used to treat the cells: • azelaic acid, Fluka, batch S3317131508B29, 20 mM • titanium dioxide-coated potassium aluminium silicate, Merck Darmstadt, batch W08012807X, 3% The following cytokines/chemokines were analyzed: • IL-1β • IL-6 • TNF-α • VEGF • MCP-1=CCL2 HaCaT cells were cultivated in triplicates, irradiated with 100 mJ UVB and then cultivated in the presence or absence of azelaic acid and, if appropriate, titanium dioxide-coated potassium aluminium silicate or the combination thereof for 24 or 48 h. […] The cytokines IL-1β (A), IL-6 (B), TNFα (C), VEGF (D) and MCP-1/CCL2 (E) were measured in the supernatant in triplicate after 24 (series I) and 48 h (series II) using Mesoscale. […]

[2] = system: IL-1β; experiment: IL-1β in supernatants of UVB-irradiated HaCaT cells; details: UVB 100 mJ irradiated, azelaic acid 20 mM, pigment 3%
Protocol: as §1

[3] = system: VEGF; experiment: VEGF in supernatants of UVB-irradiated HaCaT cells
Protocol: HaCaT cells originate from a spontaneously immortalized permanent human keratinocyte cell line established by long-term cultivation of adult human keratinocytes under reduced calcium concentration and elevated temperature (Boukamp et al. J Cell Biol 106:761-771, 1988). HaCaT cells were propagated in culture medium. This consists of 88 ml DMEM/Ham's F12 w/o glutamine, 10 ml foetal calf serum, 1 ml penicillin/streptomycin solution with 10,000 units/ml and 1 ml of glutamine. […] HaCaT cells were sown in 6-well or 12-well plates at a cell number of 3×10^5 and 1.5×10^5 cells/well, respectively. The cells were cultivated to about 80% confluence in culture medium. 2 h prior to the intended UV irradiation, the cells were incubated with the above-mentioned substances. Immediately before the irradiation, the cells were washed 2× with PBS and irradiated therein. Irradiation was with UVB (spectrum: 280-360 nM, max. 320 nM) in a Waldmann-UVB source UV7002 at 100 mJ. After the UV irradiation, the cells were irradiated in culture medium in the presence and absence of the abovementioned substances. The cultures were stopped 24 h or 48 h after the UVB irradiation, and the supernatant was removed and centrifuged to remove debris and titanium dioxide-coated potassium aluminium silicate. All cultures were set up in triplicate. The supernatants were frozen at -80° C. until further use. The protein concentration was determined using a commercial kit from Meso Scale Discovery, Gaithersburg, Md., USA. The test was carried out in accordance with the instructions of the manufacturer (www.mesoscale.com). After addition of the blocking solution to the plates precoated with scavenger antibodies, the samples were incubated for 1 h and then washed. […] After this time, the detection antibody was added for 1 h. The samples were then washed once more, 150 μl of read buffer were pipetted into the mixture and the electrochemiluminescence was measured in an MSD Sector plate reader. […] The following cell cultures were prepared: • unirradiated HaCaTs • irradiated HaCaTs (100 mJ) • irradiated HaCaTs (100 mJ) in the presence of azelaic acid, • irradiated HaCaTs (100 mJ) in the presence of azelaic acid and titanium dioxide-coated potassium aluminium silicate The following reagents were used to treat the cells: • azelaic acid, Fluka, batch S3317131508B29, 20 mM • titanium dioxide-coated potassium aluminium silicate, Merck Darmstadt, batch W08012807X, 3% The following cytokines/chemokines were analyzed: • IL-1β • IL-6 • TNF-α • VEGF • MCP-1=CCL2 HaCaT cells were cultivated in triplicates, irradiated with 100 mJ UVB and then cultivated in the presence or absence of azelaic acid and, if appropriate, titanium dioxide-coated potassium aluminium silicate or the combination thereof for 24 or 48 h. The supernatants were then used to measure proinflammatory cytokines. The cytokines IL-1β (A), IL-6 (B), TNFα (C), VEGF (D) and MCP-1/CCL2 (E) were measured in the supernatant in triplicate after 24 (series I) and 48 h (series II) using Mesoscale. What is shown are the mean values and also the respective individual values of the protein determinations.

[4] = system: IL-6; experiment: IL-6 in supernatants of UVB-irradiated HaCaT cells; details: UVB 100 mJ irradiated, azelaic acid 20 mM, pigment 3%
Protocol: (§2) HaCaT cells originate from a spontaneously immortalized permanent human keratinocyte cell line established by long-term cultivation of adult human keratinocytes under reduced calcium concentration and elevated temperature (Boukamp et al. J Cell Biol 106:761-771, 1988). HaCaT cells were propagated in culture medium. This consists of 88 ml DMEM/Ham's F12 w/o glutamine, 10 ml foetal calf serum, 1 ml penicillin/streptomycin solution with 10,000 units/ml and 1 ml of glutamine. […] HaCaT cells were sown in 6-well or 12-well plates at a cell number of 3×10^5 and 1.5×10^5 cells/well, respectively. The cells were cultivated to about 80% confluence in culture medium. 2 h prior to the intended UV irradiation, the cells were incubated with the above-mentioned substances. Immediately before the irradiation, the cells were washed 2× with PBS and irradiated therein. Irradiation was with UVB (spectrum: 280-360 nM, max. 320 nM) in a Waldmann-UVB source UV7002 at 100 mJ. […] The protein concentration was determined using a commercial kit from Meso Scale Discovery, Gaithersburg, Md., USA. […] The samples were then washed once more, 150 μl of read buffer were pipetted into the mixture and the electrochemiluminescence was measured in an MSD Sector plate reader. […] The following cell cultures were prepared: • unirradiated HaCaTs • irradiated HaCaTs (100 mJ) • irradiated HaCaTs (100 mJ) in the presence of azelaic acid, • irradiated HaCaTs (100 mJ) in the presence of azelaic acid and titanium dioxide-coated potassium aluminium silicate The following reagents were used to treat the cells: • azelaic acid, Fluka, batch S3317131508B29, 20 mM • titanium dioxide-coated potassium aluminium silicate, Merck Darmstadt, batch W08012807X, 3% The following cytokines/chemokines were analyzed: • IL-1β • IL-6 • TNF-α • VEGF • MCP-1=CCL2 HaCaT cells were cultivated in triplicates, irradiated with 100 mJ UVB and then cultivated in the presence or absence of azelaic acid and, if appropriate, titanium dioxide-coated potassium aluminium silicate or the combination thereof for 24 or 48 h. […]

[5] = system: TNF-α; experiment: TNF-α in supernatants of UVB-irradiated HaCaT cells; details: UVB 100 mJ irradiated, azelaic acid 20 mM, pigment 3%
Protocol: as §2

[6] = system: HaCaT cells; experiment: Overall anti-inflammatory effect in UVB-irradiated skin cell cultures (HaCaT); details: addition of azelaic acid
Protocol: HaCaT cells originate from a spontaneously immortalized permanent human keratinocyte cell line established by long-term cultivation of adult human keratinocytes under reduced calcium concentration and elevated temperature (Boukamp et al. J Cell Biol 106:761-771, 1988). HaCaT cells were propagated in culture medium. This consists of 88 ml DMEM/Ham's F12 w/o glutamine, 10 ml foetal calf serum, 1 ml penicillin/streptomycin solution with 10,000 units/ml and 1 ml of glutamine. […] HaCaT cells were sown in 6-well or 12-well plates at a cell number of 3×10^5 and 1.5×10^5 cells/well, respectively. The cells were cultivated to about 80% confluence in culture medium. 2 h prior to the intended UV irradiation, the cells were incubated with the above-mentioned substances. Immediately before the irradiation, the cells were washed 2× with PBS and irradiated therein. […] The protein concentration was determined using a commercial kit from Meso Scale Discovery, Gaithersburg, Md., USA. […] The samples were then washed once more, 150 μl of read buffer were pipetted into the mixture and the electrochemiluminescence was measured in an MSD Sector plate reader. […] The cytokines IL-1β (A), IL-6 (B), TNFα (C), VEGF (D) and MCP-1/CCL2 (E) were measured in the supernatant in triplicate after 24 (series I) and 48 h (series II) using Mesoscale. […]

O=C(O)CCCCCCCC(=O)O [Azelaic acid, azelaic acid]
MCP-1 in HACaT cell supernatants after 24 h, mean ([1]; 24 h, mean n = 3): 683.2 pg/L
MCP-1 in HACaT cell supernatants after 24 h, individual values #1-#3 ([1]; 24 h, single cultures): 520.8 pg/L and 908.9 pg/L and 619.9 pg/L
MCP-1 in HACaT cell supernatants after 48 h, mean ([1]; 48 h, mean n = 3): 1190.1 pg/L
MCP-1 in HACaT cell supernatants after 48 h, individual values #1-#3 ([1]; 48 h, single cultures): 1116.1 pg/L and 1279.9 pg/L and 1174.3 pg/L
IL-1β in HACaT cell supernatants after 24 h, mean ([2]; 24 h, mean n = 3): 5.8 pg/L
IL-1β in HACaT cell supernatants after 24 h, individual values #1-#3 ([2]; 24 h, single cultures): 3.1 pg/l (2×) and 11.3 pg/l
IL-1β in HACaT cell supernatants after 48 h, mean ([2]; 48 h, mean n = 3): 10.4 pg/L
IL-1β in HACaT cell supernatants after 48 h, individual values #1-#3 ([2]; 48 h, single cultures): 7.2 pg/mL and 14.3 pg/mL and 9.7 pg/mL
VGEF in HACaT cell supernatants after 24 h, mean ([3]; UVB 100 mJ irradiated, 24 h, azelaic acid 20 mM, pigment 3%, mean n = 3): 692.4 pg/L
VGEF in HACaT cell supernatants after 24 h, individual values #1-#3 ([3]; UVB 100 mJ irradiated, 24 h, azelaic acid 20 mM, pigment 3%, single cultures): 633.4 pg/L and 1694.59 pg/L and 751.4 pg/L
VGEF in HACaT cell supernatants after 48 h, mean ([3]; UVB 100 mJ irradiated, 48 h, azelaic acid 20 mM, pigment 3%, mean n = 3): 3999.0 pg/L
VGEF in HACaT cell supernatants after 48 h, individual values #1-#3 ([3]; UVB 100 mJ irradiated, 48 h, azelaic acid 20 mM, pigment 3%, single cultures): 2950 pg/mL and 5810 pg/mL and 3240 pg/mL
effect on the endothelial growth factor VEGF ([3]; keratinocytes, azelaic acid alone): leads to a reduction
IL-6 in HACaT cell supernatants after 24 h, mean ([4]; 24 h, mean n = 3): 44.3 pg/L
IL-6 in HACaT cell supernatants after 24 h, individual values #1-#3 ([4]; 24 h, single cultures): 24.7 pg/L and 70.9 pg/L and 37.4 pg/L
IL-6 in HACaT cell supernatants after 48 h, mean ([4]; 48 h, mean n = 3): 120.7 pg/L
TNF-α in HACaT cell supernatants after 24 h, mean ([5]; 24 h, mean n = 3): 7.2 pg/L
TNF-α in HACaT cell supernatants after 24 h, individual values #1-#3 ([5]; 24 h, single cultures): 7.6 pg/L and 21.63 pg/L and 6.7 pg/L
TNF-α in HACaT cell supernatants after 48 h, mean ([5]; 48 h, mean n = 3): 30.0 pg/L
induction of the inflammatory cytokines (IL-1β, IL-6, TNF-α) after irradiation of keratinocytes [6]: can be reduced
